# Where a SMILES comes first, the peptide text is derived from it. Bridges are numbered along the chain shown (N, C = ends).
# Assays:
# CK2α = target: T1, CK2α (Homo sapiens, UniProt P68400); experiment: Thermal shift assay in cell lysates; assay type: binding
# T1 construct: endogenous in cells; host or cells: MCF-10A (CK2β-silenced by pLKO1 lentiviral shRNA; WT as comparison)
# Description: Thermal shift assay (TSA) is based on the biophysical principle of ligand-induced thermal stabilization of target proteins. This assay can be used to detect protein–ligand interactions in complex cell extracts. Therefore, we have generated thermal melting curves from cell extracts, in which the extent of CK2 unfolding was measured. The assays were performed on WT or CK2β-depleted MCF-10A cell extracts incubated with 50 µM of TAT or TAT-Pc 13 and exposed to increasing temperatures.
# Figure 5 Thermal shift assay in cell lysates. CK2β-depleted MCF-10A cell lysates were treated with 50 µM TAT or TAT-Pc 13 (A), or with PBS (Phosphate-buffered saline) or CK2β (B) for 30 min at room temperature. The respective lysates were divided into 20 µL aliquots and heated individually at different temperatures for 3 min. After centrifugation, the supernatants were assayed for CK2 activity with the CK2β-independent peptide substrate. Representative data shown from two independent experiments in duplicate.
# CK2β-depleted MCF-10A cell lysates prepared in 50 mM Tris-HCl pH 7.5, 150 mM NaCl, and 2% glycerol supplemented with Complete Protease Inhibitor Cocktail (Sigma, #P8340) were divided into four aliquots with two being treated with 50 µM TAT or […] and the other two aliquots with CK2β or PBS (control). […]
# 786-0 = experiment: Cell death of cancerous cell line; assay type: cell-based
# CK2 holoenzyme = target: T2, CK2 holoenzyme (Homo sapiens, UniProt P68400); experiment: CK2 kinase assay with CK2β-independent peptide substrate; assay type: biochemical; details: CK2 holoenzyme 100 nM, 15 min at 4 °C; at high TAT-Pc 13 concentrations
# T2 construct: made in house
# T2 sequence (P68400 whole entry): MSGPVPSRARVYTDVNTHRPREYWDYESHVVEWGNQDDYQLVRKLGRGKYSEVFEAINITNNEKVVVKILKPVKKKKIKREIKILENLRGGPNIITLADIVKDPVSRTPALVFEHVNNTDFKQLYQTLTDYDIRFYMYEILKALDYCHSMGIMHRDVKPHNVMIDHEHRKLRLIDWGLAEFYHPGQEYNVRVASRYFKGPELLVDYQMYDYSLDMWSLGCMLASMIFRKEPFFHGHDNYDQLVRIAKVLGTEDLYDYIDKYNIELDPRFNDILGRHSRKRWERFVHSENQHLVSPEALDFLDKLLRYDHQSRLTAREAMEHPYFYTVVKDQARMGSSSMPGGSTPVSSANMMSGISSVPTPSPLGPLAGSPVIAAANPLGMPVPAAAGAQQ
# Description: Figure 4 Inhibitory activity of a TAT-Pc analogue in vitro. (A) CK2 holoenzyme (100 nM) was incubated in the presence of increasing concentrations of TAT-Pc 13 for 15 min at 4 °C. CK2 activity was then determined with CK2β-dependent or independent peptide substrates; (B) [^35S]-labeled CK2α was incubated with biotinylated MBP-CK2β immobilized on streptavidin coated plates (preformed complex) in the absence (1) or presence (2) of TAT-Pc 13. Alternatively, [^35S]-labeled CK2α was incubated with TAT-Pc 13 (3) or random TAT-Pc 13 (4) and then with immobilized biotinylated MBP-CK2β. After washing, the amount of [^35S]-labeled CK2α remaining in the complex was determined by radioactivity counting. Representative data shown from two independent experiments. Results are presented as mean ± s.d. of triplicates.
# CK2 kinase assays were performed in a phosphorylation buffer containing recombinant CK2α (36 ng) or recombinant CK2 holoenzyme (50 ng) and a mixture containing 10 mM MgCl2 and 1 μCi of [γ-32P]ATP and 0.15 M NaCl in the presence of 0.2 mM of the CK2β-independent substrate […] [28] or the CK2β-dependent substrate […] [18]. […] Kinase reactions were terminated by the addition of 60 μL of 4% trichloroacetic acid and sample adsorption on phosphocellulose P81 paper, which were washed in 0.5% phosphoric acid and counted in a scintillation counter.
# HeLa = experiment: Cell death of cancerous cell line, PrestoBlue assay; assay type: cell-based; details: 6 h, increasing concentrations (Figure S1)
# Description: (§1) Alternatively, cell viability was measured using the PrestoBlue® assay (Invitrogen, Carlsbad, CA, USA). The microtiter plates containing the treated cells were incubated for 1 h with 10 µL PrestoBlue. The fluorescence was recorded at 580 nm using a FluoStar Optima plate reader (BMG LabTech, Ortenberg, Germany).
# (§2) Supplementary Materials: In Search of Small
# (§3) Molecule Inhibitors Targeting the Flexible CK2
# (§4) Benoit Bestgen, Zakia Belaid-Choucair, Thierry Lomberget, Marc Le Borgne, Odile Filhol […]
# (§5) Figure S1. Cellular effects of TAT-Pc 13. (A) MDA MB-231 cells (⦁-⦁) or HeLa cells (○-○) were incubated for 6 h with increasing concentrations of TAT-Pc 13 and cell death was measured using the PrestoBlue assay as described in Material and Methods; (B) 786-O cells were treated for 12 h with increasing concentrations of CX-4945, lysed and analyzed by Western blot; (C) 786-O cells were treated with 20 µM TAT-Pc 13 or 5 µM CX-4945 and immunostained for p21 expression.
# (§6) Figure 2. Inhibition of TAT-Pc-induced cell death. MCF-10A cells were pre-treated in the absence (CTRL) or presence of 20 µM z-VAD or 30 µM Necrostatin-1 or 20 µM z-VAD + 30 µM Necrostatin-1 for 5 h and then incubated for 4 h with 25 µM random TAT-Pc 13 or TAT-Pc 13 and cell viability was evaluated as in Figure 8A. […]
# MDA MB-231 = experiment: as above; assay type: cell-based; details: 6 h, increasing concentrations (Figure S1)
# Description: as §1, §2, §3, §4, §5, §6
# T1 sequence (P68400 whole entry): as above
compound,measurement,setting,value
CC[C@H](C)[C@@H]1NC(=O)[C@H](CCCCN)NC(=O)[C@H](Cc2ccccc2)NC(=O)CNC(=O)[C@H](Cc2ccc(O)cc2)NC(=O)[C@H](CC(C)C)NC(=O)[C@H](CCCNC(=N)N)NC(=O)CNC(=O)CNC(=O)[C@@H](NC(=O)[C@H](CCC(N)=O)NC(=O)[C@@H]2CCCN2C(=O)[C@@H]2CCCN2C(=O)[C@H](CCCNC(=N)N)NC(=O)[C@H](CCCNC(=N)N)NC(=O)[C@H](CCCNC(=N)N)NC(=O)[C@H](CCC(N)=O)NC(=O)[C@H](CCCNC(=N)N)NC(=O)[C@H](CCCNC(=N)N)NC(=O)[C@H](CCCCN)NC(=O)[C@H](CCCCN)NC(=O)[C@H](CCCNC(=N)N)NC(=O)CN)CCCCNC(=O)CNC(=O)CNC(=O)[C@H](Cc2c[nH]cn2)NC1=O [TAT-Pc 13] (H-GRKKRRQRRRPPQKGGRLYGFKIHGG; lactam 14-C; N-terminus assumed),shift in the melting curves,"CK2α; CK2β-depleted MCF-10A cell extracts, 50 µM peptide, 30 min at room temperature, 3 min heating, read-out CK2 activity",4 °C
same,thermal shift in WT cell extracts,"CK2α; extracts from WT MCF-10A cells, not shown",no thermal shift
same,induction of cell death,786-0,induce cell death
same,CK2β-independent peptide phosphorylation,CK2 holoenzyme,significantly stimulated
same,induction of cell death,HeLa,induce cell death
same,induction of cell death,MDA MB-231,induce cell death

# Source: PMC5374420, “In Search of Small Molecule Inhibitors Targeting the Flexible CK2 Subunit Interface” (Pharmaceuticals, 2017)
